The values that follow come from US10538498B2, “1,3,4-oxadiazole sulfonamide derivative compounds as histone deacetylase 6 inhibitor, and the pharmaceutical composition comprising the same” (Chong Kun Dang Pharmaceutical Corp., priority 2015, dated 2020).

This assay concerns the target T1, human recombinant HDAC6 (Homo sapiens, UniProt Q9UBN7).
T1 construct: purchased Calbiochem 382180
T1 sequence (Q9UBN7 1-1215): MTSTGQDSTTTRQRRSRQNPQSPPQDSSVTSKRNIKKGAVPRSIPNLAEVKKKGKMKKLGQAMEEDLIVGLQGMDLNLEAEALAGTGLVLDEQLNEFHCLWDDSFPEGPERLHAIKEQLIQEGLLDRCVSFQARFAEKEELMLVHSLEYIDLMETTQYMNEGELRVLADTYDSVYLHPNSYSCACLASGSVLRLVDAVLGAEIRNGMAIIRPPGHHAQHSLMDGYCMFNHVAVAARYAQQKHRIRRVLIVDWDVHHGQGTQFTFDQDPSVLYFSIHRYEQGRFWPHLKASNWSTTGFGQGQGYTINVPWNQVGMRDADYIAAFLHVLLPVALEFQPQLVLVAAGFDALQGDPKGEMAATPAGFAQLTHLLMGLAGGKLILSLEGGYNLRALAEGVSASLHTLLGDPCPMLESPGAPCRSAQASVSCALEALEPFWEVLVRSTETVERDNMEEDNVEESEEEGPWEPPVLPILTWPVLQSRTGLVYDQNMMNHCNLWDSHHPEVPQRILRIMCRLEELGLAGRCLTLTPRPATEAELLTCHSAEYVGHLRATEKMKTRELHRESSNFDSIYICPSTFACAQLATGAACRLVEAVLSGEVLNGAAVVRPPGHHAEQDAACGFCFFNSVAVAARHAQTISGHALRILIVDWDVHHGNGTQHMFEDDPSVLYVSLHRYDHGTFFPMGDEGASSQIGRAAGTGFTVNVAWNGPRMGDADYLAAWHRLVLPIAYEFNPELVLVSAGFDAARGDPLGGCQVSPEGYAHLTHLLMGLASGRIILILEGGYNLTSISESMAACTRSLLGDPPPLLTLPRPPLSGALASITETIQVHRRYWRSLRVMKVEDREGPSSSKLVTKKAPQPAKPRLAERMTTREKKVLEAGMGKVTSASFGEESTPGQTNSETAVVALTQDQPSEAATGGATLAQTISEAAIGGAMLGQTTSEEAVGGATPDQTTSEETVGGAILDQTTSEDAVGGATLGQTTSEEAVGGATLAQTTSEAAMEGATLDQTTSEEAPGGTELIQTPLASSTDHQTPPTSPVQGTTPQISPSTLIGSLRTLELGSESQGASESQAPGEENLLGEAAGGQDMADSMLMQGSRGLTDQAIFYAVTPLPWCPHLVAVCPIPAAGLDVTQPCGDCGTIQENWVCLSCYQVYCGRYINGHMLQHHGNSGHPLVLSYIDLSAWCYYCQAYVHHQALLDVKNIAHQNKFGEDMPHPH
The experiment in a line: HDAC6 enzyme activity inhibition assay (HDAC Fluorimetric Drug Discovery Kit). The class given is biochemical. As to conditions: for HDAC6 selectivity (fold): HDAC1 vs HDAC6; for IC50: same protocol as the HDAC1 enzyme activity test. The essentials:
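5-fold compound dilutions + 0.3 μg enzyme + 10 μM Fluor de Lys-SIRT1 substrate, 60 min, 30° C; Developer II 30 min; fluorescence Ex 360/Em 460; IC50 by curve fit.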

A word on the IC50: it is the point on the concentration scale where inhibition reaches its midpoint.

`CS(=O)(=O)N1CC(N2CCN(CCS(=O)(=O)N(Cc3ccc(-c4nnc(C(F)F)o4)cc3F)c3ccc(F)c(Cl)c3)CC2)C1` [Compound 11582, N-(3-chloro-4-fluorophenyl)-N-(4-(5-(difluoromethyl)-1,3,4-oxadiazol-2-yl)-2-fluorobenzyl)-2-(4-(1-(methylsulfonyl)azetidin-3-yl)piperazin-1-yl)ethane-1-sulfonamide]: the “HDAC6 selectivity (fold)” value stood at 4348 fold and the IC50 stood at 23 nM.
For `O=S(=O)(CCN1CCN(C2COC2)CC1)N(Cc1ccc(-c2nnc(C(F)F)o2)cc1F)c1ccc(F)c(Cl)c1` [Compound 11583, N-(3-chloro-4-fluorophenyl)-N-(4-(5-(difluoromethyl)-1,3,4-oxadiazol-2-yl)-2-fluorobenzyl)-2-(4-(oxetan-3-yl)piperazin-1-yl)ethane-1-sulfonamide] the same measures were 4348 fold and 23 nM.
For `O=S(=O)(CCCN1CCOCC1)N(Cc1ccc(-c2nnc(C(F)F)o2)cc1F)c1ccccc1` [Compound 11588, N-(4-(5-(difluoromethyl)-1,3,4-oxadiazol-2-yl)-2-fluorobenzyl)-3-morpholino-N-phenylpropane-1-sulfonamide], in that order: 2273 fold and 44 nM.
Regarding `CN1CCN(CCCS(=O)(=O)N(Cc2ccc(-c3nnc(C(F)F)o3)cc2F)c2ccccc2)CC1` [Compound 11589, N-(4-(5-(difluoromethyl)-1,3,4-oxadiazol-2-yl)-2-fluorobenzyl)-3-(4-methylpiperazin-1-yl)-N-phenylpropane-1-sulfonamide], the “HDAC6 selectivity (fold)” value is 2326 fold and the IC50 was found to be 43 nM.
For `CS(=O)(=O)N(Cc1cnc(-c2nnc(C(F)(F)F)o2)nc1)c1ccccc1` [Compound 11606, N-phenyl-N-((2-(5-(trifluoromethyl)-1,3,4-oxadiazol-2-yl)pyrimidin-5-yl)methyl)methanesulfonamide] the same measures were 66 fold and 1520 nM.
For `O=S(=O)(C1CCN(C2COC2)CC1)N(Cc1ccc(-c2nnc(C(F)F)o2)cc1F)c1ccccc1` [Compound 11625, N-(4-(5-(difluoromethyl)-1,3,4-oxadiazol-2-yl)-2-fluorobenzyl)-1-(oxetan-3-yl)-N-phenylpiperidine-4-sulfonamide], in that order: 719 fold and 139 nM.
For `CS(=O)(=O)N(Cc1ccc(-c2nnc(C(F)F)o2)cc1)c1cccnc1` [Compound 11628, N-(4-(5-(difluoromethyl)-1,3,4-oxadiazol-2-yl)benzyl)-N-(pyridin-3-yl)methanesulfonamide] the same measures were 2083 fold and 48 nM.
For `O=S(=O)(CCN1CCCCC1)N(Cc1ccc(-c2nnc(C(F)F)o2)cc1)c1ccccc1` [Compound 11629, N-(4-(5-(difluoromethyl)-1,3,4-oxadiazol-2-yl)benzyl)-N-phenyl-2-(piperidin-1-yl)ethane-1-sulfonamide], the “HDAC6 selectivity (fold)” value was found to be 1041 fold and the IC50 turned out to be 96 nM.
Take `CN1CCN(CCS(=O)(=O)N(Cc2ccc(-c3nnc(C(F)F)o3)cc2)c2ccccc2)CC1` [Compound 11630, N-(4-(5-(difluoromethyl)-1,3,4-oxadiazol-2-yl)benzyl)-2-(4-methylpiperazin-1-yl)-N-phenylethane-1-sulfonamide]: the “HDAC6 selectivity (fold)” value was 3225 fold and the IC50 was found to be 31 nM.
In the case of `CC(C)(C)OC(=O)N1CCN(CCS(=O)(=O)N(Cc2ccc(-c3nnc(C(F)F)o3)cc2)c2ccccc2)CC1` [Compound 11631, tert-butyl 4-(2-(N-(4-(5-(difluoromethyl)-1,3,4-oxadiazol-2-yl)benzyl)-N-phenylsulfamoyl)ethyl)piperazine-1-carboxylate], the “HDAC6 selectivity (fold)” value was 436 fold and the IC50 came to 229 nM.
For `C[C@@H]1CN(CCS(=O)(=O)N(Cc2ccc(-c3nnc(C(F)F)o3)cc2)c2ccccc2)C[C@H](C)N1` [Compound 11632, N-(4-(5-(difluoromethyl)-1,3,4-oxadiazol-2-yl)benzyl)-2-((3S,5R)-3,5-dimethylpiperazin-1-yl)-N-phenylethane-1-sulfonamide], the “HDAC6 selectivity (fold)” value turned out to be 1587 fold and the IC50 was 63 nM.
For `CC(=O)N1CCN(CCS(=O)(=O)N(Cc2ccc(-c3nnc(C(F)F)o3)cc2)c2ccccc2)CC1` [Compound 11633, 2-(4-acetylpiperazin-1-yl)-N-(4-(5-(difluoromethyl)-1,3,4-oxadiazol-2-yl)benzyl)-N-phenylethane-1-sulfonamide], in that order: 2173 fold and 46 nM.
For the compound `CS(=O)(=O)N1CCN(CCS(=O)(=O)N(Cc2ccc(-c3nnc(C(F)F)o3)cc2)c2ccccc2)CC1` [Compound 11634, N-(4-(5-(difluoromethyl)-1,3,4-oxadiazol-2-yl)benzyl)-2-(4-(methylsulfonyl)piperazin-1-yl)-N-phenylethane-1-sulfonamide], the “HDAC6 selectivity (fold)” value is reported as 2083 fold and the IC50 amounted to 48 nM.
As for `CS(=O)(=O)N(Cc1ccc(-c2nnc(C(F)F)o2)cc1)c1cncnc1` [Compound 11636, N-(4-(5-(difluoromethyl)-1,3,4-oxadiazol-2-yl)benzyl)-N-(pyrimidin-5-yl)methanesulfonamide], the “HDAC6 selectivity (fold)” value amounted to 862 fold and the IC50 amounted to 116 nM.
For `O=S(=O)(CCN1CCOCC1)N(Cc1ccc(-c2nnc(C(F)F)o2)cc1)c1ccccc1` [Compound 11655, N-(4-(5-(difluoromethyl)-1,3,4-oxadiazol-2-yl)benzyl)-2-morpholino-N-phenylethanesulfonamide] the same measures were 1724 fold and 58 nM.
Take `CC(=O)N1CCN(CCCS(=O)(=O)N(Cc2ccc(-c3nnc(C(F)F)o3)cc2)c2ccccc2)CC1` [Compound 11656, 3-(4-acetylpiperazin-1-yl)-N-(4-(5-(difluoromethyl)-1,3,4-oxadiazol-2-yl)benzyl)-N-phenylpropane-1-sulfonamide]: the “HDAC6 selectivity (fold)” value is listed as 1587 fold and the IC50 turned out to be 63 nM.
In the case of `O=S(=O)(CCCN1CCCCC1)N(Cc1ccc(-c2nnc(C(F)F)o2)cc1)c1ccccc1` [Compound 11657, N-(4-(5-(difluoromethyl)-1,3,4-oxadiazol-2-yl)benzyl)-N-phenyl-3-(piperidin-1-yl)propane-1-sulfonamide], the “HDAC6 selectivity (fold)” value stood at 1219 fold and the IC50 was found to be 82 nM.
For `CN1CCN(CCCS(=O)(=O)N(Cc2ccc(-c3nnc(C(F)F)o3)cc2)c2ccccc2)CC1` [Compound 11658, N-(4-(5-(difluoromethyl)-1,3,4-oxadiazol-2-yl)benzyl)-3-(4-methylpiperazin-1-yl)-N-phenylpropane-1-sulfonamide], the “HDAC6 selectivity (fold)” value amounted to 2500 fold and the IC50 turned out to be 40 nM.
For `O=S(=O)(CCN1CCN(Cc2ccccc2)CC1)N(Cc1ccc(-c2nnc(C(F)F)o2)cc1)c1ccccc1` [Compound 11663, 2-(4-benzylpiperazin-1-yl)-N-(4-(5-(difluoromethyl)-1,3,4-oxadiazol-2-yl)benzyl)-N-phenylethanesulfonamide], in that order: 578 fold and 173 nM.
